Laboratory results taken from paper PMC3669009, “Degradation of Phytate by the 6-Phytase from Hafnia alvei: A Combined Structural and Solution Study” (PLoS ONE, 2013).
Values belong to the compound of their own block, whether it stands above or below them.

What was measured:
[1] = biological target: T1, HaPhy (Hafnia alvei phytase) (Hafnia alvei, UniProt H9TUK5); assay: X-ray crystal structure of the complex, […] Å; format: binding; settings: 0.2 M potassium/sodium tartrate, pH 8.4-9.1 (from crystallisation solution); active site; second tartrate at occupancy 0.25
T1 construct: gene phyA; recombinant mature enzyme, purified, residues 1-416; expression details only in SI; monomer in the asymmetric unit; four disulphides
T1 sequence (H9TUK5 34-446): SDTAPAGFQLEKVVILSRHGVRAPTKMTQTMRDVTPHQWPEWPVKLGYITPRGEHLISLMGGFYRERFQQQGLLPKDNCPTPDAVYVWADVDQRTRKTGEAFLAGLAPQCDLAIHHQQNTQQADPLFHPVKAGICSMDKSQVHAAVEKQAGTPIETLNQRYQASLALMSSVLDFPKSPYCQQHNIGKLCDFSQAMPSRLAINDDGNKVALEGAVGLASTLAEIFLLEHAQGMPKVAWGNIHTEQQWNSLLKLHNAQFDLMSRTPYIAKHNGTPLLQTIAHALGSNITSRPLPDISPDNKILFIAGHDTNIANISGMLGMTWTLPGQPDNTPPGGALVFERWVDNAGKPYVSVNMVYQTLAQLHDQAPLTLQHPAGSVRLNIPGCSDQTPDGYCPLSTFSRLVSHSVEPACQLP

[2] = biological target: T1, HaPhy (Hafnia alvei phytase); assay: isothermal titration calorimetry; format: binding
[3] = biological target: T2, YkPhy (Yersinia kristensenii phytase) (Yersinia kristensenii, UniProt H9TUK6); settings: SPGS buffer pH 5.0 (phosphate from crystallisation solution); two Pi in the active site
T2 construct: gene phyA
T2 sequence (H9TUK6 entry or part of it): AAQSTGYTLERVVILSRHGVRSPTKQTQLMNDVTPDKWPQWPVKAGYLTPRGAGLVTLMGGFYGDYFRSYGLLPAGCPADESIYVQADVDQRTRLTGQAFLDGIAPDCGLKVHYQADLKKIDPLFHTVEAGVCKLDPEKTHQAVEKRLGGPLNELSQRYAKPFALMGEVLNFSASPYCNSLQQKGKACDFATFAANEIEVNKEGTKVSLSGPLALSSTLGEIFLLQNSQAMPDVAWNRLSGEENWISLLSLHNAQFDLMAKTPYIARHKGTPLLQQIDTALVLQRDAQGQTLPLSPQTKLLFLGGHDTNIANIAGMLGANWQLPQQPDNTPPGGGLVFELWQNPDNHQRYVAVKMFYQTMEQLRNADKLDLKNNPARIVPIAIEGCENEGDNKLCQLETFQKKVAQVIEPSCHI

SMILES: O=C(O)C(O)C(O)C(=O)O (stereo not drawn) [L(+)-tartrate]
- X-ray crystal structure of the complex, 1.60 Å [1]: The active site contained a tartrate molecule, a component of the crystallisation buffer

- Kd [2]: ~160 nM
SMILES: O=S(=O)(O)O[C@H]1[C@H](OS(=O)(=O)O)[C@@H](OS(=O)(=O)O)[C@H](OS(=O)(=O)O)[C@@H](OS(=O)(=O)O)[C@H]1OS(=O)(=O)O [MIHS, myo-inositol hexakissulphate]

SMILES: O=P(O)(O)O [Pi, phosphate]
- X-ray crystal structure of the complex, 1.67 Å [3]: Each monomer contains two Pi molecules in its active site
